Measurements from US20250250251A1, “PIPERIDINYLPYRIDINYLCARBONITRILE DERIVATIVES AS INHIBITORS OF GLUTAMINYL-PEPTIDE CYCLOTRANSFERASE AND GLUTAMINYL-PEPTIDE CYCLOTRANSFERASE LIKE PROTEIN” (Boehringer Ingelheim International GmbH, priority 2024, published 2025).

Tests used:
[1] = Assay C: permeability in CACO-2 cells; format: in vitro ADME; conditions: human, pH 7.2, Table 7, compounds of the invention, CACO-2 cells; for efflux ratio: permeability B-A/permeability A-B, read-out: Efflux Ratio
Experimental: Caco-2 cells (1-2×10^5 cells/1 cm^2 area) are seeded on filter inserts (Costar transwell polycarbonate or PET filters, 0.4 μm pore size) and cultured (DMEM) for 10 to 25 days. Compounds are dissolved in appropriate solvent (like DMSO, 1-20 mM stock solutions). […] The transport solution (TL) is applied to the apical or basolateral donor side for measuring A-B or B-A permeability (3 filter replicates), respectively. Samples are collected at the start and end of experiment from the donor and at various time intervals for up to 2 hours also from the receiver side for concentration measurement by HPLC-MS/MS or scintillation counting. Sampled receiver volumes are replaced with fresh receiver solution.
Efflux ratio (ER)=permeability B−A/permeability A−B

[2] = test system: murine hepatocytes; experiment: Assay E: stability in murine hepatocytes; format: in vitro ADME, mouse; conditions: Table 12, compounds of the invention, 1 μM, 5% species serum
Experimental: The metabolic degradation of the test compound is assayed in a murine hepatocyte suspension.
Murine hepatocytes (typically cryopreserved) are incubated in an appropriate buffer system (e.g. Dulbecco's modified eagle medium plus 3.5 μg glucagon/500 mL, 2.5 mg insulin/500 mL and 3.75 mg/500 mL hydrocortison) containing 5% species serum.
Following a (typically) 30 min preincubation in an incubator (37° C., 10% CO2) 5 μl of test compound solution (80 μM; from 2 mM in DMSO stock solution diluted 1:25 with medium) are added into 395 μl hepatocyte suspension (cell density in the range 0.25-5 Mio cells/mL, typically 1 Mio cells/mL; final concentration of test compound 1 μM, final DMSO concentration 0.05%).
The cells are incubated for six hours (incubator, orbital shaker) and samples (25 μl) are taken at 0, 0.5, 1, 2, 4 and 6 hours. Samples are transferred into acetonitrile and pelleted by centrifugation (5 min). The supernatant is transferred to a new 96-deepwell plate, evaporated under nitrogen and resuspended.
Decline of parent compound is analyzed by HPLC-MS/MS
CLint is calculated as follows CL_[…]=Dose/AUC=(C0/CD)/(AUD+clast/k)×1000/60. C0: initial concentration in the incubation [μM], CD: cell density of vital cells [10e6 cells/mL], AUD: area under the data [μM×h], clast: concentration of last data point [μM], k: slope of the regression line for parent decline [h−1].
The calculated in vitro hepatic intrinsic clearance can be scaled up to the intrinsic in vivo hepatic Clearance and used to predict hepatic in vivo blood clearance (CL) by the use of a liver model (well stirred model).
[formula] [formula] [formula] • Hepatocellularity, mouse: 120×10e6 cells/g liver • Liver factor, mouse: 55 g/kg bodyweight • Blood flow, mouse: 90 ml/(min×kg)

[3] = molecular target: T1, QPCT (Homo sapiens, UniProt Q16769); experiment: Assay A: biochemical QPCT activity assay (MALDI-TOF MS, CD47 peptide substrate); conditions: Table 2, compounds of the invention, read-out: Inhibition of QPCT: IC50
T1 construct: purchased Origine (OriGene) TP700028
T1 sequence (Q16769 29-361): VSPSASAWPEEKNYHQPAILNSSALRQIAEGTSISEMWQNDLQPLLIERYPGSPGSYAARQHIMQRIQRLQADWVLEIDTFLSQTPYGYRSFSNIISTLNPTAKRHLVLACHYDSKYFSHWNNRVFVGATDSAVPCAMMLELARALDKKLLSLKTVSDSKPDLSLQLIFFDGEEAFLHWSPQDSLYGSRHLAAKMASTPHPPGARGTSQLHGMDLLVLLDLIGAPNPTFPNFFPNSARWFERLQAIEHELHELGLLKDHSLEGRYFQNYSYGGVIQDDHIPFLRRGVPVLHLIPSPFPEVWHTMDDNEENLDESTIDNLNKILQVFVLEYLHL
Experimental: (§1) QPCT or QPCTL dependent conversion of N-terminal glutamine to pyroglutamate of CD47 was monitored via MALDI-TOF MS. Test compounds were dissolved in 100% DMSO and serially diluted into clear 1,536-well microtiter plates. Enzymatic reactions were set up in assay buffer containing 20 mM Tris pH 7.5, 0.1 mM TCEP, 0.01% BSA, and 0.001% Tween20. […] The plates were incubated for 10 min in a humidified incubator at 24° C. Subsequently, 2.5 μL of CD47 peptide substrate surrogate (^19[…]^33) was added to each well (final concentration: 10 μM for QPCTL/20 μM for QPCT). The plates were mixed for 30 sec at 1,000 rpm and subsequently incubated for 40 min in a humidified incubator at 24° C. […] The plates were sealed with an adhesive foil, mixed for 30 s at 1,000 rpm and stored at room temperature until preparation of the MALDI target plates. MALDI target plates were prepared as described previously. […] QPCT or QPCTL activity was monitored by calculating the ratio between product and internal standard signals followed by normalization to high (100% activity) and low (0% activity) controls. Determination of compound potencies was obtained by fitting the dose-response data to a four-parameter logistical equation.

[4] = test system: SIRPα signalling induced by Raji cells; experiment: Assay B: SIRPα signalling assay using Raji cells; format: cell-based; conditions: Homo sapiens, Table 4, compounds of the invention, read-out: Inhibition of SIRPα signalling induced by Raji cells: IC50
Experimental: Bioassay reagent 1 of the PathHunter Bioassay detection kit (DiscoverX 93-0001) was added to each well of the plate using a multichannel pipette followed by a 15 min incubation at room temperature. Afterwards bioassay reagent 2 was added followed by 60 min incubation at room temperature (incubation in the dark).
(§2) The analysis of the data was performed using the luminescence signal generated by beta-galactosidase in the PathHunter reporter cell line. The luminescence measurement was done using a Pherastar Multi-Mode Reader.

[5] = test system: SIRPα signalling induced by A549 cells; experiment: Assay B: SIRPα signalling assay using A549 cells; format: cell-based; conditions: Homo sapiens, Table 4, compounds of the invention, read-out: Inhibition of SIRPα signalling induced by A549 cells: IC50
Experimental: Two cell types are independently used: the Raji cell line (lymphoblast-like human cell line derived from B lymphocytes from a Burkitt's lymphoma patient in 1963) and A549 cells (adenocarcinoma human alveolar basal epithelial cells).
Test compounds were dissolved in 100% DMSO and serially diluted into a white 384-well microtiter cell culture plate (PerkinElmer #60076780 in case of Raji assay; PDL-coated plates Greiner #781945 in case of A549 assay). 5000 Raji cells (ATCC #CC86) or 5000 A549 cells (ATCC #CCL-185) in Assay Complete Cell Plating reagent 30 (DiscoverX 93-0563R30B) were added per well. The assay plate was incubated for 48 h at 37° C., 95% humidity and 5% CO2. 15000 reporter cells (Jurkat PathHunter SIRPαV1, DiscoverX #93-1135C19) were added to each well, and the plate was incubated for 5 h at 37° C., 95% humidity and 5% CO2. Bioassay reagent 1 of the PathHunter Bioassay detection kit (DiscoverX 93-0001) was added to each well of the plate using a multichannel pipette followed by a 15 min incubation at room temperature. Afterwards bioassay reagent 2 was added followed by 60 min incubation at room temperature (incubation in the dark).
as §2, with “Reader. Dose-response curves & IC50 data were calculated with 4-parameter sigmoidal dose response formula.” for “Reader.”

[6] = test system: CYP3A4 mRNA; experiment: Assay D: CYP induction screening assay in primary human hepatocytes; format: in vitro ADME; conditions: Table 9, compounds of the invention, 48 h
Experimental: Cryopreserved plateable human hepatocytes (single donor. BioIVT) were thawed and plated in Collagen-I coated 96-well-plates at a cell density of 0.07 million cells per well.
After a 6 h attachment period, the seeding medium was replaced by serum-free William's medium E supplemented with Matrigel (0.25 mg/ml) and allowed to recover overnight. 24 h post-seeding, serum-free Williams E medium containing the test compound at a final concentration of […] and a final DMSO content of 0.1% and 0.1% DMSO (solvent-treated control), respectively, was added to predefined wells. Exposure solutions were renewed after 24 h.
After 48 h of treatment in total, the effect of the test compounds on CYP3A4 mRNA expression was assessed using the QuantiGene Plex Gene Expression Assay. Hepatocytes were lysed and total RNA was extracted using the QuantiGene Sample Processing Kit according to the instructions of the manufacturer.
mRNA quantification was conducted using a customized QuantiGene Plex Panel to analyse CYP3A4 and the housekeeper genes RPL32, EIF4E2 and GUSB according to the instructions of the manufacturer and measured on a Luminex™ instrument. Signal was reported as median fluorescence intensity (MFI), which is proportional to the number of target RNA molecules present in the sample.
For calculation of CYP3A4 mRNA induction, the signal for CYP3A4 was normalized against the geometric mean of the signal obtained for the housekeeper genes for hepatocytes exposed to test compounds in relation to solvent-treated samples according to the following equation: […]

[7] = molecular target: T2, QPCTL (Homo sapiens, UniProt Q9NXS2); experiment: Assay A: biochemical QPCTL activity assay (MALDI-TOF MS, CD47 peptide substrate); conditions: Table 2, compounds of the invention, read-out: Inhibition of QPCTL: IC50
T2 construct: made in house
T2 sequence (Q9NXS2 whole entry, species assumed): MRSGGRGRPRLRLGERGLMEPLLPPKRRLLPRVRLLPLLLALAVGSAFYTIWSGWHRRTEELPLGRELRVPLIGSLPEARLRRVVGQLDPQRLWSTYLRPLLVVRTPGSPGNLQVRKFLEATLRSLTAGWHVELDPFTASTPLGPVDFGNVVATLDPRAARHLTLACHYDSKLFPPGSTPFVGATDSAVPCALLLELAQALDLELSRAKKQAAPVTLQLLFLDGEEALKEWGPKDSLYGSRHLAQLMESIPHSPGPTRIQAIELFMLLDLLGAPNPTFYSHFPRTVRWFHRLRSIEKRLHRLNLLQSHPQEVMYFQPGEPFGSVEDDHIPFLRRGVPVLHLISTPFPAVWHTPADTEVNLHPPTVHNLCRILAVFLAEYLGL
Experimental: as §1

| Papp A→B [1] [×10⁻⁶ cm/s] | efflux ratio [1] | Mouse Hepatocyte Stability QH [2] [%] | IC50 [3] [µM] | IC50 [4] [µM] | IC50 [5] [µM] | n-fold induction of CYP3A4 at 10 μM [6] [n-fold] | IC50 [7] [µM] | SMILES |
| --- | --- | --- | --- | --- | --- | --- | --- | --- |
| 14 | 6.4 | 34 | 0.005 | 0.083 | 0.014 | 4.2 | 0.006 | Cn1cnnc1C1(F)CCN(c2c(C#N)cc(C(C)(F)F)nc2-c2cnc3nn(C)c(C(F)(F)F)c3c2)CC1 [Example 9] |
| 11 | 6.6 | 53 | 0.013 | 0.16 | 0.049 | 5.2 | 0.008 | Cn1cnnc1C1(F)CCN(c2c(C#N)cc(C(F)(F)F)nc2-c2cnc3nn(C)c(C(F)(F)F)c3c2)CC1 [Example 10] |
| 32 | 2.5 | 32 | 0.003 | 0.167 | 0.037 | 5.0 | 0.003 | Cn1cnnc1C1(F)CCN(c2c(C#N)cc(C3CC3)nc2-c2cnc3nn(C)c(C(F)(F)F)c3c2)CC1 [Example 11] |
| 5.6 | 9.5 | 21 | 0.014 | 0.95 | 0.145 | 4.1 | 0.016 | Cc1cc(-c2nc(C3CC3)cc(C#N)c2N2CCC(F)(c3nncn3C)CC2)cnn1 [Example 12] |
| 7.6 | 10.9 | <12 | 0.009 | 0.003 | 0.001 | 14.2 | 0.012 | Cn1cnnc1C1(F)CCN(c2c(C#N)cc(C(F)(F)F)nc2-c2cnc3nn(C(C)(C)C)cc3c2C(F)F)CC1 [Example 15] |
| 5.1 | 9.4 | 18 | 0.002 | 0.069 | 0.022 | 3.0 | 0.002 | Cc1nn(C)cc1-c1cc(C#N)c(N2CCC(F)(c3nncn3C)CC2)c(-c2cnc3nn(C(F)(F)F)cc3c2)n1 [Example 17] |
| 2.3 | 17 | 44 | 0.005 | 0.262 | 0.082 | 1.3 | 0.004 | Cn1cnnc1C1(F)CCN(c2c(C#N)cc(-c3ccc(F)cc3)nc2-c2ccnnc2)CC1 [Example 18] |
| 8.1 | 7.2 | <12 | 0.002 | 0.139 | 0.025 | 1.1 | 0.002 | Cc1ncc(-c2cc(C#N)c(N3CCC(F)(c4nncn4C)CC3)c(-c3cnc4nn(C(F)(F)F)cc4c3)n2)o1 [Example 19] |
| 4.3 | 12.8 | <12 | 0.001 | 0.618 | 0.11 | 0.5 | 0.002 | Cn1cnnc1C1(F)CCN(c2c(C#N)cc(-c3cnc(C(F)(F)F)nc3)nc2-c2cnc3nn(C(F)(F)F)cc3c2)CC1 [Example 20] |
| 6.8 | 11.9 | 35 | 0.002 | 0.078 | 0.024 | 0.7 | 0.001 | Cn1cnnc1C1(F)CCN(c2c(C#N)cc(-c3cccnc3)nc2-c2cnc3nn(C(F)(F)F)cc3c2)CC1 [Example 21] |
| 12 | 6.8 | 17 | 0.003 | 0.13 | 0.017 | 0.5 | 0.001 | Cc1ccc(-c2cc(C#N)c(N3CCC(F)(c4nncn4C)CC3)c(-c3cnc4nn(C(F)(F)F)cc4c3)n2)cn1 [Example 22] |
| 4.1 | 16.3 | <12 | 0.002 | 0.169 | 0.043 | 1.1 | 0.001 | Cc1nn(C)c(C)c1-c1cc(C#N)c(N2CCC(F)(c3nncn3C)CC2)c(-c2cnc3nn(C(F)(F)F)cc3c2)n1 [Example 23] |
